# Laboratory results reported in ChEMBL document CHEMBL1201862, “PubChem BioAssay data set” (2004).
#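 All cell lines were grown in 96-well plates and treated with compound for 48 hours. Abbreviation: GI50, concentration required for 50% inhibition of growth.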 Activity calls are given as the source filed them. Rule as the data show it: active = GI50 up to about 1.1 µM and inactive = higher.
# Key:
# Assay in all cases: DTP human tumour cell line panel, 48 h
# 786-0 = tested on: 786-0
# A549 = tested on: A549
# CCRF-CEM = tested on: CCRF-CEM
# DLD-1 = tested on: DLD-1
# EKVX = tested on: EKVX
# HCC 2998 = tested on: HCC 2998
# HCT-116 = tested on: HCT-116
# HL-60 = tested on: HL-60
# HOP-18 = tested on: HOP-18
# HOP-92 = tested on: HOP-92
# HT-29 = tested on: HT-29
# IGROV-1 = tested on: IGROV-1
# K562 = tested on: K562
# KM-20L2 = tested on: KM-20L2
# KM12 = tested on: KM12
# LXFL 529 = tested on: LXFL 529
# M14 = tested on: M14
# NCI-H226 = tested on: NCI-H226
# NCI-H23 = tested on: NCI-H23
# NCI-H460 = tested on: NCI-H460
# NCI-H522 = tested on: NCI-H522
# OVCAR-3 = tested on: OVCAR-3
# OVCAR-4 = tested on: OVCAR-4
# RPMI-8226 = tested on: RPMI-8226
# RXF 393 = tested on: RXF 393
# SF-268 = tested on: SF-268
# SF-295 = tested on: SF-295
# SF-539 = tested on: SF-539
# SK-MEL-28 = tested on: SK-MEL-28
# SK-MEL-2 = tested on: SK-MEL-2
# SK-MEL-5 = tested on: SK-MEL-5
# SK-OV-3 = tested on: SK-OV-3
# SN12C = tested on: SN12C
# SNB-78 = tested on: SNB-78
# SW-620 = tested on: SW-620
# U-251 = tested on: U-251
# UACC-257 = tested on: UACC-257
# UACC-62 = tested on: UACC-62
# UO-31 = tested on: UO-31
# A498 = tested on: A498
# ACHN = tested on: ACHN
# CAKI-1 = tested on: CAKI-1
# COLO 205 = tested on: COLO 205
# DMS-114 = tested on: DMS-114
# DMS-273 = tested on: DMS-273
# HCT-15 = tested on: HCT-15
# HOP-62 = tested on: HOP-62
# LOX IMVI = tested on: LOX IMVI
# M19-MEL = tested on: M19-MEL
# Malme-3M = tested on: Malme-3M
# OVCAR-5 = tested on: OVCAR-5
# OVCAR-8 = tested on: OVCAR-8
# SNB-19 = tested on: SNB-19
# SNB-75 = tested on: SNB-75
# TK-10 = tested on: TK-10
# XF498 = tested on: XF498
# MOLT-4 = tested on: MOLT-4
# SR = tested on: SR
smiles,measurement,setting,value
CCOc1ccc2[nH]c3c(C)c4cc[n+](C)cc4c(C)c3c2c1,GI50,786-0,0.149 µM (active)
same,GI50,A549,1.18 µM (inactive)
same,GI50,CCRF-CEM,1.98 µM (inactive)
same,GI50,DLD-1,0.9 µM (active)
same,GI50,EKVX,2.57 µM (inactive)
same,GI50,HCC 2998,3 µM (inactive)
same,GI50,HCT-116,1.82 µM (inactive)
same,GI50,HL-60,4.67 µM (inactive)
same,GI50,HOP-18,2.62 µM (inactive)
same,GI50,HOP-92,1.98 µM (inactive)
same,GI50,HT-29,3.25 µM (inactive)
same,GI50,IGROV-1,2.18 µM (inactive)
same,GI50,K562,1.58 µM (inactive)
same,GI50,KM-20L2,3.35 µM (inactive)
same,GI50,KM12,1.57 µM (inactive)
same,GI50,LXFL 529,0.22 µM (active)
same,GI50,M14,5.81 µM (inactive)
same,GI50,NCI-H226,0.264 µM (active)
same,GI50,NCI-H23,0.929 µM (active)
same,GI50,NCI-H460,1.94 µM (inactive)
same,GI50,NCI-H522,0.838 µM (active)
same,GI50,OVCAR-3,2.52 µM (inactive)
same,GI50,OVCAR-4,2.54 µM (inactive)
same,GI50,RPMI-8226,11.3 µM (inactive)
same,GI50,RXF 393,6.41 µM (inactive)
same,GI50,SF-268,0.184 µM (active)
same,GI50,SF-295,0.125 µM (active)
same,GI50,SF-539,0.363 µM (active)
same,GI50,SK-MEL-28,2.24 µM (inactive)
same,GI50,SK-MEL-2,1.51 µM (inactive)
same,GI50,SK-MEL-5,1.36 µM (inactive)
same,GI50,SK-OV-3,2.88 µM (inactive)
same,GI50,SN12C,0.14 µM (active)
same,GI50,SNB-78,1.09 µM (active)
same,GI50,SW-620,1.28 µM (inactive)
same,GI50,U-251,0.115 µM (active)
same,GI50,UACC-257,2.97 µM (inactive)
same,GI50,UACC-62,1.84 µM (inactive)
same,GI50,UO-31,16.6 µM (inactive)
Cc1ccc(/N=N/C2S/C(=C(\C#N)c3nc4ccccc4[nH]3)N(c3ccccc3)C2=O)cc1 (configuration not stated),GI50,786-0,27.3 µM (inactive)
same,GI50,A498,> 100 µM (inactive)
same,GI50,A549,88.1 µM (inactive)
same,GI50,ACHN,34.1 µM (inactive)
same,GI50,CAKI-1,67.1 µM (inactive)
same,GI50,CCRF-CEM,> 100 µM (inactive)
same,GI50,COLO 205,> 100 µM (inactive)
same,GI50,DLD-1,> 100 µM (inactive)
same,GI50,DMS-114,65.5 µM (inactive)
same,GI50,DMS-273,> 100 µM (inactive)
same,GI50,EKVX,> 100 µM (inactive)
same,GI50,HCT-116,90.2 µM (inactive)
same,GI50,HCT-15,> 100 µM
same,GI50,HL-60,> 100 µM (inactive)
same,GI50,HOP-62,30.1 µM (inactive)
same,GI50,HOP-92,37.3 µM (inactive)
same,GI50,HT-29,> 100 µM (inactive)
same,GI50,IGROV-1,29.6 µM (inactive)
same,GI50,K562,20.4 µM (inactive)
same,GI50,KM-20L2,> 100 µM (inactive)
same,GI50,LOX IMVI,19.9 µM (inactive)
same,GI50,LXFL 529,> 100 µM (inactive)
same,GI50,M14,89.1 µM (inactive)
same,GI50,M19-MEL,> 100 µM (inactive)
same,GI50,Malme-3M,> 100 µM (inactive)
same,GI50,NCI-H226,> 100 µM (inactive)
same,GI50,NCI-H23,86.7 µM (inactive)
same,GI50,NCI-H460,> 100 µM (inactive)
same,GI50,NCI-H522,> 100 µM (inactive)
same,GI50,OVCAR-3,> 100 µM (inactive)
same,GI50,OVCAR-4,42.8 µM (inactive)
same,GI50,OVCAR-5,85.1 µM (inactive)
same,GI50,OVCAR-8,56.1 µM (inactive)
same,GI50,RXF 393,28.8 µM (inactive)
same,GI50,SF-268,> 100 µM (inactive)
same,GI50,SF-295,42.6 µM (inactive)
same,GI50,SF-539,43.6 µM (inactive)
same,GI50,SK-MEL-28,> 100 µM (inactive)
same,GI50,SK-MEL-2,> 100 µM (inactive)
same,GI50,SK-MEL-5,> 100 µM (inactive)
same,GI50,SK-OV-3,> 100 µM (inactive)
same,GI50,SN12C,> 100 µM (inactive)
same,GI50,SNB-19,99.1 µM (inactive)
same,GI50,SNB-75,29.2 µM (inactive)
same,GI50,SNB-78,> 100 µM (inactive)
same,GI50,SW-620,> 100 µM (inactive)
same,GI50,TK-10,36.9 µM (inactive)
same,GI50,U-251,57.9 µM (inactive)
same,GI50,UACC-257,55 µM (inactive)
same,GI50,UACC-62,> 100 µM (inactive)
same,GI50,UO-31,39 µM (inactive)
same,GI50,XF498,30 µM (inactive)
C=CC1(CC)/C(=N\O)C(CC)(CC)C(=O)N1O (configuration not stated),GI50,786-0,> 100 µM (inactive)
same,GI50,A498,> 100 µM (inactive)
same,GI50,A549,> 100 µM (inactive)
same,GI50,ACHN,> 100 µM (inactive)
same,GI50,CAKI-1,> 100 µM (inactive)
same,GI50,CCRF-CEM,> 100 µM (inactive)
same,GI50,COLO 205,> 100 µM (inactive)
same,GI50,DLD-1,> 100 µM (inactive)
same,GI50,DMS-114,> 100 µM (inactive)
same,GI50,DMS-273,> 100 µM (inactive)
same,GI50,EKVX,> 100 µM (inactive)
same,GI50,HCC 2998,> 100 µM (inactive)
same,GI50,HCT-116,> 100 µM (inactive)
same,GI50,HCT-15,> 100 µM
same,GI50,HL-60,> 100 µM (inactive)
same,GI50,HOP-62,> 100 µM (inactive)
same,GI50,HOP-92,93.8 µM (inactive)
same,GI50,HT-29,> 100 µM (inactive)
same,GI50,IGROV-1,> 100 µM (inactive)
same,GI50,K562,> 100 µM (inactive)
same,GI50,KM-20L2,> 100 µM (inactive)
same,GI50,KM12,> 100 µM (inactive)
same,GI50,LOX IMVI,> 100 µM (inactive)
same,GI50,LXFL 529,> 100 µM (inactive)
same,GI50,M14,> 100 µM (inactive)
same,GI50,M19-MEL,> 100 µM (inactive)
same,GI50,MOLT-4,> 100 µM (inactive)
same,GI50,Malme-3M,> 100 µM (inactive)
same,GI50,NCI-H226,> 100 µM (inactive)
same,GI50,NCI-H23,> 100 µM (inactive)
same,GI50,NCI-H460,> 100 µM (inactive)
same,GI50,NCI-H522,> 100 µM (inactive)
same,GI50,OVCAR-3,> 100 µM (inactive)
same,GI50,OVCAR-4,> 100 µM (inactive)
same,GI50,OVCAR-5,> 100 µM (inactive)
same,GI50,OVCAR-8,> 100 µM (inactive)
same,GI50,RPMI-8226,> 100 µM (inactive)
same,GI50,RXF 393,> 100 µM (inactive)
same,GI50,SF-295,> 100 µM (inactive)
same,GI50,SF-539,> 100 µM (inactive)
same,GI50,SK-MEL-28,> 100 µM (inactive)
same,GI50,SK-MEL-2,> 100 µM (inactive)
same,GI50,SK-MEL-5,> 100 µM (inactive)
same,GI50,SK-OV-3,> 100 µM (inactive)
same,GI50,SN12C,> 100 µM (inactive)
same,GI50,SNB-19,> 100 µM (inactive)
same,GI50,SNB-75,> 100 µM (inactive)
same,GI50,SNB-78,> 100 µM (inactive)
same,GI50,SR,> 100 µM (inactive)
same,GI50,SW-620,> 100 µM (inactive)
same,GI50,TK-10,> 100 µM (inactive)
same,GI50,U-251,> 100 µM (inactive)
same,GI50,UACC-257,> 100 µM (inactive)
same,GI50,UACC-62,> 100 µM (inactive)
same,GI50,UO-31,> 100 µM (inactive)
same,GI50,XF498,48.9 µM (inactive)
